Our source for the ED50 and inhibition values is US5554613A, “Heterocyclic derivatives” (Zeneca Limited, priority 1992, dated 1996).

What is called ED50 is the dose that gives a 50% effect, or the effect in half of the subjects. High values mean a need for a large dose, low ones an effect at a small dose. As a reminder, the inhibition is the drop in the measured response relative to a control, in per cent.

Assay [1] has as its system de novo hepatic cholesterol synthesis. Put plainly: Acute rat cholesterol synthesis assay (de novo hepatic cholesterol synthesis from 14C-acetate). The class given is in vivo. Particulars: female rats, oral gavage, ip or iv dosing, [2-14C]-acetate ip after 1 hour. Here is the method: (b) Ache rat cholesterol synthesis assay.
This is an acute in vivo test in the rat to measure de novo hepatic cholesterol synthesis from exogenously administered ^14 C-acetate.
Female rats (35-55 g) are housed in reverse lighting conditions (red light from 0200h-1400h) for a period of about 2 weeks prior to test. Animals are allowed free access to chow and drinking water throughout this period. At test, animals should weigh 125-150 g.
Test compounds may be administered by oral gavage, dissolved or suspended in 0.5% polysorbate, or by ip or iv dosing. Control animals receive vehicle alone. After 1 hour the rats are injected ip with 25 μCi [2-^14 C]-acetate (NEN DUPONT. specific activity, 45-60 mCi/mmol NEC-085H, or AMERSHAM specific activity, 50-60mCi/mmol CFA 14) in a volume of 0.25 ml saline (100 μCi/ml). After a further hour, rats are terminally anaesthetised with halothane and a blood sample obtained from the abdominal vena cava.
1 ml of plasma is lyophilised and then saponified in 2 ml ethanolic KOH (1 part 33% KOH, 9 parts ethanol) at 75° C. for 2 hours. After addition of an equal quantity of water, non-saponifiable lipids are extracted with two 5 ml volumes of hexane. The hexane extracts are evaporated to dryness and the residues dissolved in ethanol to determine cholesterol specific radioactivity. ED50 values can be determined in the standard way.

For a further assay, the target named is T1, Squalene synthase (Rattus norvegicus, UniProt Q02769).
T1 construct: rat liver microsomal protein; from tissue; host or cells: rat liver microsomes
T1 sequence (Q02769 1-416): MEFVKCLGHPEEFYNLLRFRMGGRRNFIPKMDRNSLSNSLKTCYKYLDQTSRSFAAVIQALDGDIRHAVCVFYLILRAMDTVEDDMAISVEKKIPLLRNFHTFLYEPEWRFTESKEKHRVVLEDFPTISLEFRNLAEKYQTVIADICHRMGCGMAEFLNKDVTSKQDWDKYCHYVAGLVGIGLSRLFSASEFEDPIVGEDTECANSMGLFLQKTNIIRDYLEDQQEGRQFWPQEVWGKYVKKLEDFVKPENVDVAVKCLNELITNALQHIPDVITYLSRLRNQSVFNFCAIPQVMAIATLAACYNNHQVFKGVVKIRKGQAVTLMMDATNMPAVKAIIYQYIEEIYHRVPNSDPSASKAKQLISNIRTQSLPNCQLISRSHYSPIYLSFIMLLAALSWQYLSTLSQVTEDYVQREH
Put plainly: Inhibition of Squalene synthase (formation of squalene from tritiated farnesyl pyrophosphate, rat liver microsomal protein). Particulars: at a concentration of 2.5 μM; rat liver microsomes. It is filed as biochemical. Here is the method: (a) Inhibition of Squalene synthase
In this test, the ability of a compound to prevent the formation of squalene from a radioactive substrate (tritiated farnesyl pyrophosphate) is assessed.
The test compound is incubated at a concentration of […] in 200 μl of a buffered solution containing potassium phosphate (50 mM), MgCl2 (4.95 mM), KF (9.9 mM), NADPH (0.9 mM) and rat liver microsomal protein (20 μg). Rat liver microsomes are prepared by the method described in published European Patent Application No. 324,421 and stored in liquid nitrogen prior to assay. Assay vials are kept at 37° C. throughout the incubation.
The reaction is started with the addition of the substrate (1-[^3 H]-farnesyl pyrophosphate), final concentration 20 μM, and stopped after 15 minutes reaction time with the addition of 50 μl of 4% KOH. The reaction products are separated from unreacted substrate after application to a C-18 octadecyl 1 ccBond column (Analytichem Int product No. 617101). An aqueous fraction is eluted with 250 μl of 0.1M KOH. Squalene is then eluted with 1.0 ml 10% ethylacetate in hexane and radioactivity determined. The difference in radioactivity in the presence and absence of the test compound is used to determine the level of inhibition. […] The IC50 can then be determined from a plot of percentage inhibition against concentration of test compound.
Background: Microsomes from liver hold many membrane-bound enzymes, among them those of drug oxidation.

On to `OC1(c2ccc(-c3ccccn3)cc2)CN2CCC1CC2` (stereo not drawn) [Example 2, 3-[4-(pyrid-2-yl)phenyl]quinuclidin-3-ol], for which the ED50 in assay [1] came out at 14 mg/kg. In the case of `OC1(c2ccc(-c3cncnc3)cc2)CN2CCC1CC2` (stereo not drawn) [Example 4, 3-[4-(pyrimidin-5-yl)phenyl]quinuclidin-3-ol], the ED50 in assay [1] is 4.5 mg/kg. The molecule also had an inhibition at 2.5 µM on Squalene synthase of around 54%.
